Experimental findings from patent publication US9725416B2, “Ethynyl derivatives” (Hoffmann-La Roche Inc., priority 2014, dated 2017) are described below.

The target in this experiment is T1, human mGlu4 receptor (Homo sapiens, UniProt Q14833).
T1 construct: expressed in transfected cells; host or cells: HEK-293 (monoclonal, stably transfected)
As to the kind of experiment: Ca2+ mobilization in vitro assay on recombinant human mGlu4 expressed in HEK293 cells (mGlu4 PAM). The format is cell-based. The following applies: for Emax: HEK293, maximal response in % of the maximal stimulatory effect obtained with saturating concentrations of L-AP4, read-out: Eff. (%); for EC50: HEK-293 cells, Ca2+ mobilization, L-AP4 added at EC20. As for the experimental part: Determination of EC50 Values Using a Ca2+ mobilization in vitro Assay on Recombinant Human mGlu4 Expressed in HEK293 cells:
A monoclonal HEK-293 cell line stably transfected with a cDNA encoding for the human mGlu4 receptor was generated; for the work with mGlu4 Positive Allosteric Modulators (PAMs), a cell line with low receptor expression levels and low constitutive receptor activity was selected to allow the differentiation of agonistic versus PAM activity. Cells were cultured according to standard protocols (Freshney, 2000) in Dulbecco's Modified Eagle Medium with high glucose supplemented with 1 mM glutamine, 10% (vol/vol) heat-inactivated bovine calf serum, Penicillin/Streptomycin, 50 μg/ml hygromycin and 15 μg/ml blasticidin (all cell culture reagents and antibiotics from Invitrogen, Basel, Switzerland).
About 24 hrs before an experiment, 5×10^4 cells/well were seeded in poly-D-lysine coated, black/clear-bottomed 96-well plates. The cells were loaded with 2.5 μM Fluo-4AM in loading buffer (1×HBSS, 20 mM HEPES) for 1 hr at 37° C. and washed five times with loading buffer. The cells were transferred into a Functional Drug Screening System 7000 (Hamamatsu, Paris, France), and 11 half logarithmic serial dilutions of test compound at 37° C. were added and the cells were incubated for 10-30 min. with on-line recording of fluorescence. Following this pre-incubation step, the agonist (2S)-2-amino-4-phosphonobutanoic acid (L-AP4) was added to the cells at a concentration corresponding to EC20 with on-line recording of fluorescence; in order to account for day-to-day variations in the responsiveness of cells, the EC20 of L-AP4 was determined immediately ahead of each experiment by recording of a full dose-response curve of L-AP4.
Responses were measured as peak increase in fluorescence minus basal (i.e. fluorescence without addition of L-AP4), normalized to the maximal stimulatory effect obtained with saturating concentrations of L-AP4. Graphs were plotted with the % maximal stimulatory using XLfit, a curve fitting program that iteratively plots the data using Levenburg Marquardt algorithm. The single site competition analysis equation used was y=A+((B−A)/(1+((x/C)D))), where y is the % maximal stimulatory effect, A is the minimum y, B is the maximum y, C is the EC50, x is the log 10 of the concentration of the competing compound and D is the slope of the curve (the Hill Coefficient). From these curves the EC50 (drug concentration at which 50% of the maximal receptor activation was achieved), the Hill coefficient as well as the maximal response in % of the maximal stimulatory effect obtained with saturating concentrations of L-AP4 were calculated (see FIG. 1).
A depression of the signal observed after addition of the EC20 concentration of L-AP4was indicative of an inhibitory activity of the test compound.
(Calcium assays in cells follow changes in intracellular calcium, usually with a dye or a luminescent sensor.)

Broadly, the EC50 is the concentration that produces a half-maximal response.

Each structure is given as a SMILES string.

T1 sequence (Q14833 33-912): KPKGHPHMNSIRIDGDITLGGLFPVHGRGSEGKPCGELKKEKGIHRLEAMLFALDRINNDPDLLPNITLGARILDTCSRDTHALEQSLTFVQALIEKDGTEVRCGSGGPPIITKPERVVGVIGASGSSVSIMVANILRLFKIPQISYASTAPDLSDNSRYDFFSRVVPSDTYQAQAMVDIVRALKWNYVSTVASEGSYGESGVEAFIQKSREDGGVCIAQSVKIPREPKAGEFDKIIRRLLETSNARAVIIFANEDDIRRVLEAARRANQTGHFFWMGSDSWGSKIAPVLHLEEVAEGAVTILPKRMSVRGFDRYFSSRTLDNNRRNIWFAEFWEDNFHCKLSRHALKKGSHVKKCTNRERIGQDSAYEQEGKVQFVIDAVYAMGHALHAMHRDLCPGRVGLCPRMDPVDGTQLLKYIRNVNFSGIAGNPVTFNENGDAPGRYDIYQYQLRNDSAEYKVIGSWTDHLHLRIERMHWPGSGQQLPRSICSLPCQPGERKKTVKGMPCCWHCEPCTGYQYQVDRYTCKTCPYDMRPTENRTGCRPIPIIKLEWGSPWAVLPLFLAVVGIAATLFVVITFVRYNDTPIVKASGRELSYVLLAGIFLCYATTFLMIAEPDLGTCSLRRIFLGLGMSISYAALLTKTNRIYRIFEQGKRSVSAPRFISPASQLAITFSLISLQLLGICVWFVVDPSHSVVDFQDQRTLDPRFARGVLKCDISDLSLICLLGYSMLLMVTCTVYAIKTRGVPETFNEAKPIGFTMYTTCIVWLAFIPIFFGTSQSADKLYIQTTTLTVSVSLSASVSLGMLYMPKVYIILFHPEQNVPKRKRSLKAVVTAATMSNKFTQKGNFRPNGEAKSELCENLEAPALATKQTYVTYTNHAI

For `CN1C(=O)N(c2c(F)cc(C#Cc3ccccc3)cc2F)C(=O)C[C@@]1(C)c1cncnc1` [Example 56, (6S)-3-[2,6-Difluoro-4-(2-phenylethynyl)phenyl]-1,6-dimethyl-6-pyrimidin-5-yl-hexahydropyrimidine-2,4-dione], the Emax was 99% and the EC50 was 79 nM.
The corresponding values for `CC(C)N1CCN2C(=O)N(c3c(F)cc(C#Cc4ccccc4)cc3F)C(=O)CC2(C)C1=O` (racemic) [Example 36, (9aRS)-7-[2,6-Difluoro-4-(2-phenylethynyl)phenyl]-2-isopropyl-9a-methyl-4,9-dihydro-3H-pyrazino[1,2-c]pyrimidine-1,6,8-trione] are 128% and 169 nM.
The corresponding values for `CN1C(=O)N(c2c(F)cc(C#Cc3ccccc3)cc2F)C(=O)CC1(C)c1ccncc1` (racemic) [Example 28, (6RS)-3-[2,6-Difluoro-4-(2-phenylethynyl)phenyl]-1,6-dimethyl-6-(4-pyridyl)hexahydropyrimidine-2,4-dione] are 105% and 112 nM.
The corresponding values for `CN1C(=O)N(c2c(F)cc(C#Cc3ccccc3)cc2F)C(=O)C[C@@]1(C)c1cnc(=O)[nH]c1` [Example 80, (6S)-3-[2,6-Difluoro-4-(2-phenylethynyl)phenyl]-1,6-dimethyl-6-(2-oxo-1H-pyrimidin-5-yl)hexahydropyrimidine-2,4-dione] are 105% and 185 nM.
As to `CN1C(=O)N(c2c(F)cc(C#Cc3ccccc3)cc2F)C(=O)CC12CCCC2` [Example 6, 8-[2,6-Difluoro-4-(2-phenylethynyl)phenyl]-6-methyl-6,8-diazaspiro[4.5]decane-7,9-dione], the Emax stood at 142% and the EC50 stood at 72 nM.
The corresponding values for `CN1C(=O)N(c2c(F)cc(C#Cc3cccnc3)cc2F)C(=O)CC1(C)c1ccccc1` (stereo in doubt) [Example 20, (6R)-3-[2,6-Difluoro-4-[2-(3-pyridyl)ethynyl]phenyl]-1,6-dimethyl-6-phenyl-hexahydropyrimidine-2,4-dione] are 175% and 239 nM.
The corresponding values for `CN1C(=O)N(c2ccc(C#Cc3ccccc3)cc2Cl)C(=O)CC1(C)C` [Example 2, 3-[2-Chloro-4-(2-phenylethynyl)phenyl]-1,6,6-trimethyl-hexahydropyrimidine-2,4-dione] are 107% and 341 nM.
The corresponding values for `CN1C(=O)N(c2c(F)cc(C#Cc3ccccc3)cc2F)C(=O)C[C@@]1(C)c1cccnc1` [Example 49, (6S)-3-[2,6-Difluoro-4-(2-phenylethynyl)phenyl]-1,6-dimethyl-6-(3-pyridyl)hexahydropyrimidine-2,4-dione] are 98% and 37 nM.
With `CN1C(=O)N(c2c(F)cc(C#Cc3ccccc3)cc2F)C(=O)CC1(C)c1cccnc1` (racemic) [Example 29, (6RS)-3-[2,6-Difluoro-4-(2-phenylethynyl)phenyl]-1,6-dimethyl-6-(3-pyridyl)hexahydropyrimidine-2,4-dione], the Emax is 144% and the EC50 was 109 nM.
As for `CCC1(C)CC(=O)N(c2c(F)cc(C#Cc3ccccc3)cc2F)C(=O)N1C` (racemic) [Example 18, (6RS)-3-[2,6-Difluoro-4-(2-phenylethynyl)phenyl]-6-ethyl-1,6-dimethyl-hexahydropyrimidine-2,4-dione], the Emax was determined as 241% and the EC50 is 49 nM.
The corresponding values for `CC12CC(=O)N(c3c(F)cc(C#Cc4ccccc4)cc3F)C(=O)N1CCN(Cc1ccccc1)C2=O` (racemic) [Example 37, (9aRS)-2-Benzyl-7-[2,6-difluoro-4-(2-phenylethynyl)phenyl]-9a-methyl-4,9-dihydro-3H-pyrazino[1,2-c]pyrimidine-1,6,8-trione] are 97% and 131 nM.
The corresponding values for `CN1C(=O)N(c2c(F)cc(C#Cc3ccccc3)cc2F)C(=O)C[C@@]1(C)c1ccnnc1` [Example 61, (6S)-3-[2,6-Difluoro-4-(2-phenylethynyl)phenyl]-1,6-dimethyl-6-pyridazin-4-yl-hexahydropyrimidine-2,4-dione] are 136% and 84 nM.
The corresponding values for `CN1C(=O)N(c2ccc(C#Cc3ccccc3)cc2Cl)C(=O)CC12CCOCC2` [Example 4, 3-[2-Chloro-4-(2-phenylethynyl)phenyl]-1-methyl-9-oxa-1,3-diazaspiro[5.5]undecane-2,4-dione] are 103% and 388 nM.
With `CN1C(=O)N(c2c(F)cc(C#Cc3ccccc3)cc2F)C(=O)C[C@@]1(C)c1ccc(=O)[nH]c1` [Example 65, (6S)-3-[2,6-Difluoro-4-(2-phenylethynyl)phenyl]-1,6-dimethyl-6-(6-oxo-1H-pyridin-3-yl)hexahydropyrimidine-2,4-dione], the Emax came out at 123% and the EC50 amounted to 36 nM.
The corresponding values for `CN1C(=O)N(c2c(F)cc(C#Cc3cccnc3)cc2F)C(=O)C[C@@]1(C)c1ccnc(Cl)c1` [Example 64, (6S)-6-(2-Chloro-4-pyridyl)-3-[2,6-difluoro-4-[2-(3-pyridyl)ethynyl]phenyl]-1,6-dimethyl-hexahydropyrimidine-2,4-dione] are 119% and 124 nM.
The corresponding values for `CCN1C(=O)N(c2c(F)cc(C#Cc3ccccc3)cc2F)C(=O)C[C@@]1(C)c1ccnc(C)c1` [Example 77, (6S)-3-[2,6-Difluoro-4-(2-phenylethynyl)phenyl]-1-ethyl-6-methyl-6-(2-methyl-4-pyridyl)hexahydropyrimidine-2,4-dione] are 111% and 68 nM.
As to `CCN1C(=O)N(c2c(F)cc(C#Cc3cccnc3)cc2F)C(=O)CC1(C)c1ccccc1` (racemic) [Example 16, (6RS)-3-[2,6-Difluoro-4-[2-(3-pyridyl)ethynyl]phenyl]-1-ethyl-6-methyl-6-phenyl-hexahydropyrimidine-2,4-dione], the Emax turned out to be 136% and the EC50 is 105 nM.
The corresponding values for `CN1C(=O)N(c2c(F)cc(C#Cc3cccnc3)cc2F)C(=O)CC1(c1ccccc1)C(F)(F)F` (racemic) [Example 72, (6RS)-3-[2,6-Difluoro-4-[2-(3-pyridyl)ethynyl]phenyl]-1-methyl-6-phenyl-6-(trifluoromethyl)hexahydropyrimidine-2,4-dione] are 91% and 82 nM.
The corresponding values for `CN1C(=O)N(c2c(F)cc(C#Cc3ccccc3)cc2F)C(=O)C[C@@]1(C)c1cnccn1` [Example 57, (6S)-3-[2,6-Difluoro-4-(2-phenylethynyl)phenyl]-1,6-dimethyl-6-pyrazin-2-yl-hexahydropyrimidine-2,4-dione] are 102% and 117 nM.
The corresponding values for `CN1C(=O)N(c2c(F)cc(C#Cc3cccnc3)cc2Cl)C(=O)CC1(C)c1cccnc1` (racemic) [Example 33, (6RS)-3-[2-Chloro-6-fluoro-4-[2-(3-pyridyl)ethynyl]phenyl]-1,6-dimethyl-6-(3-pyridyl)hexahydropyrimidine-2,4-dione] are 142% and 171 nM.
For `CCN1C(=O)N(c2c(F)cc(C#Cc3cccnc3)cc2Cl)C(=O)CC1(C)C` [Example 10, 3-[2-Chloro-6-fluoro-4-[2-(3-pyridyl)ethynyl]phenyl]-1-ethyl-6,6-dimethyl-hexahydropyrimidine-2,4-dione], the Emax came to 169% and the EC50 is 256 nM.
The corresponding values for `COc1ccc([C@]2(C)CC(=O)N(c3c(F)cc(C#Cc4ccccc4)cc3F)C(=O)N2C)nn1` [Example 81, (6S)-3-[2,6-Difluoro-4-(2-phenylethynyl)phenyl]-6-(6-methoxypyridazin-3-yl)-1,6-dimethyl-hexahydropyrimidine-2,4-dione] are 100% and 28 nM.
The corresponding values for `CN1C(=O)N(c2c(F)cc(C#Cc3cccnc3)cc2Cl)C(=O)CC1(C)C` [Example 9, 3-[2-Chloro-6-fluoro-4-[2-(3-pyridyl)ethynyl]phenyl]-1,6,6-trimethyl-hexahydropyrimidine-2,4-dione] are 110% and 429 nM.
